Test results taken from patent US20240002441A1, “PEPTIDES AND USES THEREOF IN MODULATION OF AMYLOID-BETA PROTEIN DEGRADING PROTEASES” (priority 2020, published 2024).

Legend:
ECE1 = molecular target: T1, ECE1 (Homo sapiens, UniProt P42892); assay: QFS assay of Aβ-degrading enzymes: ECE1 (Example 6); type: biochemical
T1 construct: purchased R & D systems 1784-ZN-010
T1 sequence (P42892 1-770): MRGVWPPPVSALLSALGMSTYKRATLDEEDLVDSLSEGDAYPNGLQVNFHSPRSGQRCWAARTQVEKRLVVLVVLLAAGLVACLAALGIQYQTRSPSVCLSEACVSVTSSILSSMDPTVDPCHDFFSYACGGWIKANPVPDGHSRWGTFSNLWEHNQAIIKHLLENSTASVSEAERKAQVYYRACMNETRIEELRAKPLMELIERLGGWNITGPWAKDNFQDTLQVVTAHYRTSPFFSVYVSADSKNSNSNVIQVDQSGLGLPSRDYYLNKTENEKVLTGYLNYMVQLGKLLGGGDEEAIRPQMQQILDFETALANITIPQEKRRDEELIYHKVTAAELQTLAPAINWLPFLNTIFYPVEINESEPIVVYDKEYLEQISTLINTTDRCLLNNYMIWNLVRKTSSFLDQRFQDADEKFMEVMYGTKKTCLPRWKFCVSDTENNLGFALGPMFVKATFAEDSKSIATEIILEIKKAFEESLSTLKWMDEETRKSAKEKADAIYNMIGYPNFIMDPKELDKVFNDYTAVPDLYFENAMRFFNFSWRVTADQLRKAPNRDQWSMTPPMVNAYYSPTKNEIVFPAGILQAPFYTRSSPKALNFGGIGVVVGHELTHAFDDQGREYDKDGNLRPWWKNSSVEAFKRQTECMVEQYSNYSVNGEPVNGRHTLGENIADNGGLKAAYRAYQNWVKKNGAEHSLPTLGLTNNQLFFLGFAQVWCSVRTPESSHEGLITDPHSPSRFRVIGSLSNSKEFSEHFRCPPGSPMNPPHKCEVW
Protocol: (§1) Plate reader-based enzyme assays were performed using a quenched fluorescent substrate (QFS) in a 96-well format using a SpectraMAX M4 Microplate reader (Molecular Devices). The increase in fluorescence following addition of QFS (40 μM) was taken as evidence of enzyme activity. Fluorescence was monitored over 2 h at 37° C. using κEx=320 nm and λEm=405 nm. Assays were conducted in black 96-well plates. Specific enzyme activity was expressed as a rate of substrate cleavage calculated using a standard curve of 7-methoxy-coumarin-4-acetic acid.
(§2) In all plate reader-based enzyme assays using QFS, the reaction rate (μmol of substrate cleaved/min) was calculated using linear regression analysis (GraphPad Prism software version 8.01). The reaction rates calculated were used to generate the enzyme kinetic parameters Vmax and Km through non-linear regression analysis (GraphPad Prism software, version 8.01; Michaelis-Menten equation). Where indicated, enzyme activity in the presence of peptide was expressed as a % of the enzyme alone. Data were expressed as mean±SEM and statistical significance was determined using t-tests or one-way ANOVAs followed by Tukey's post-hoc test. P<0.05 was considered as statistically significant. […]
SEQ ID NO:2 was assessed in a QFS assay against enzymes NEP, ECE1, ECE2, ACE1, ACE2, IDE and MMP-2 using the method in Example 2 and the following procedure. […]

NEP = molecular target: T2, NEP (Homo sapiens, UniProt P08473); assay: NEP enzyme kinetics study with QFS (Example 5); type: biochemical; conditions: NEP QFS 0-120 μM; pre-incubation 1 h at 37° C.
T2 construct: purchased R & D systems 1182-ZNC-010
Protocol: as §1
as §2, with “significant. In all assays conducted using 96-well plates, the reaction mixtures in each well were considered an independent experiment.” for “significant.”

T2 sequence (P08473 whole entry): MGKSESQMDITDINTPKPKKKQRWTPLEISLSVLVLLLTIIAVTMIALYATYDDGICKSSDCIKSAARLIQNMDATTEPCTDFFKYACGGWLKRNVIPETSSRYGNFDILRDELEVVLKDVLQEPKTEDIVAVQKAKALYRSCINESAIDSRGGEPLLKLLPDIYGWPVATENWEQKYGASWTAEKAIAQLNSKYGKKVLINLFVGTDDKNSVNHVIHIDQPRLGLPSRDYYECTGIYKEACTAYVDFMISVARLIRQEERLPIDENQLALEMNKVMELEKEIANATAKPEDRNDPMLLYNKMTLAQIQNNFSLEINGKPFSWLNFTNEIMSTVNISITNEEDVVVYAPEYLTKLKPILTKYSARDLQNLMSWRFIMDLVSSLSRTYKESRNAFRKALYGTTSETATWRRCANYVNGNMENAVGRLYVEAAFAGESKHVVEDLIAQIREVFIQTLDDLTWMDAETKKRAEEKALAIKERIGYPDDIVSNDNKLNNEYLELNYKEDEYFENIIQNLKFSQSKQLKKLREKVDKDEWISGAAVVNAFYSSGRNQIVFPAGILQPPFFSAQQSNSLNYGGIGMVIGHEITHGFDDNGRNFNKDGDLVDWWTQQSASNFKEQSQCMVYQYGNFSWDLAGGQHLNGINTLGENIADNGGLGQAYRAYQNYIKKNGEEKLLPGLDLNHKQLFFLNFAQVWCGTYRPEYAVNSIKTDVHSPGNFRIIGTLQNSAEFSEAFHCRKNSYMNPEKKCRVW

H-SLFELGKMIL-NH2 [SEQ ID NO:2, H2N-SLFELGKMIL-NH2]
ECE1 activity compared with respective enzyme alone (ECE1; peptide 2 μM (FIG. 2c)): did not increase
ECE1 activity, concentration dependence (ECE1; peptide 0.9-26 μM): did not affect
vmax of rhNEP in the presence of peptide (NEP): 0.035±0.002 μmol substrate cleaved/min
